Data taken from article PMC11284800 (Journal of Medicinal Chemistry, 2024).
Values joined by “and” are separate entries in the source; they are usually repeats but may differ in a detail not shown here. Equal entries are not always repeated. Where two headings read alike, the source gives them in different places.

Key:
hCB1R [1] = target: T1, hCB1R (Homo sapiens, UniProt P21554); assay: [3H]CP55,940 displacement assay on CHO membranes, CB1R; assay type: binding; parameters: host or cells: CHO-K1 (CHOK1hCB1_bgal); conditions: for Ki: [3H]CP55,940 displacement
Target sequence in this assay (P21554 whole entry): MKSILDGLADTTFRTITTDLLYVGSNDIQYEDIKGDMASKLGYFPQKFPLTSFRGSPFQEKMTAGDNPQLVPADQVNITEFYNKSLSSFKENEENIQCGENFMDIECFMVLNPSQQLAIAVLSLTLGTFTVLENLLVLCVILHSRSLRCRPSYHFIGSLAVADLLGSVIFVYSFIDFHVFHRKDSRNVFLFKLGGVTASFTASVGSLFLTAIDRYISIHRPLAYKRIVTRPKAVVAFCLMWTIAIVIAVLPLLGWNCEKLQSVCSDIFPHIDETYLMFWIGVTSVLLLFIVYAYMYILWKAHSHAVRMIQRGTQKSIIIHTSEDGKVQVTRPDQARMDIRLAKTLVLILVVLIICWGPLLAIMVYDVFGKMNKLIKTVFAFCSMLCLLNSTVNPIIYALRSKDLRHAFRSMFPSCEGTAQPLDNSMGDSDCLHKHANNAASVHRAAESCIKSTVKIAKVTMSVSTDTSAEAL

human CB2R = target: T2, human CB2R (Homo sapiens, UniProt P34972); assay: [3H]CP55,940 displacement assay on CHO membranes, CB2R; assay type: binding; conditions: for Ki: [3H]CP55,940 displacement; for hCB2R % displacement at 10 µM: [3H]CP55,940 displacement at 10 µM compound, ± SEM
T2 construct: host or cells: CHO-K1 (CHOK1hCB2_bgal)
T2 sequence (P34972 whole entry): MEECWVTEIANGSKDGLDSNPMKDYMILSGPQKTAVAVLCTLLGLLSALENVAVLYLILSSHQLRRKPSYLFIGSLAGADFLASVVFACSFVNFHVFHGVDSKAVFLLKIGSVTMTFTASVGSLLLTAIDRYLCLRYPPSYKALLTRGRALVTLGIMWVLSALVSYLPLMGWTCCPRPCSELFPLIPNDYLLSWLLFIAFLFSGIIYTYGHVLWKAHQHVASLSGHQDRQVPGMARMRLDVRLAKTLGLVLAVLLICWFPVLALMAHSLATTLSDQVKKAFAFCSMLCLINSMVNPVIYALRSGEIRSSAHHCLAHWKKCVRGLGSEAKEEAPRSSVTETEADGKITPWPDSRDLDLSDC

hCB1R [2] = target: T1, hCB1R; assay: HTRF cAMP assay, antagonist mode (forskolin with CP55,940); conditions: for Emax: read-out: Variation of Emax
Target sequence in this assay (P21554 whole entry): as the sequence (P21554 whole entry) above
Method: The homogeneous time-resolved fluorescence (HTRF) cAMP assay was conducted following the manufacturer’s protocol for the cAMP-Gs Dynamic kit. […] After 15 min, reactions were stopped by the 1× cAMP-d2 conjugate in lysis buffer (5 μL/well), followed by 1× anti-cAMP cryptate conjugate in lysis buffer (5 μL/well). Following a 1 h incubation at room temperature, the plates were read in a Revvity Envision reader for time-resolved fluorescence resonance energy transfer detection at 620 and 665 nm. The HTRF ratio versus compound concentrations was plotted using Prism 8.1 (GraphPad). HTRF ratio = (signal 665 nm/signal 620 nm) × 10^4.

hCB1R [3] = target: T1, hCB1R; assay: HTRF cAMP assay, agonist / inverse agonist mode; assay type: cell-based; parameters: expressed in transfected cells; host or cells: CHO; conditions: for Functional activity at CB1R (in words): CB1R cAMP HTRF assay
Target sequence in this assay (P21554 whole entry): as above

CB1R [4] = test system: CB1R; parameters: method as in PMID 8070571, PMID 27240274, PMID 24175572; conditions: cited from earlier work
CB2R = conditions: cited from earlier work
CB1R [5] = conditions: cited from earlier work
CB1R [6] = assay: Literature affinity of drug-like ligands, CB1R (Figure 2); assay type: binding; conditions: from literature Ki values
[7] = Photophysical characterization in PBS; assay type: physicochemical; conditions: PBS pH 7.4
hCB1R [8] = conditions: cited from earlier work
hCB1R [9] = target: T1, hCB1R; assay: biochemical
Target sequence in this assay (P21554 91-472): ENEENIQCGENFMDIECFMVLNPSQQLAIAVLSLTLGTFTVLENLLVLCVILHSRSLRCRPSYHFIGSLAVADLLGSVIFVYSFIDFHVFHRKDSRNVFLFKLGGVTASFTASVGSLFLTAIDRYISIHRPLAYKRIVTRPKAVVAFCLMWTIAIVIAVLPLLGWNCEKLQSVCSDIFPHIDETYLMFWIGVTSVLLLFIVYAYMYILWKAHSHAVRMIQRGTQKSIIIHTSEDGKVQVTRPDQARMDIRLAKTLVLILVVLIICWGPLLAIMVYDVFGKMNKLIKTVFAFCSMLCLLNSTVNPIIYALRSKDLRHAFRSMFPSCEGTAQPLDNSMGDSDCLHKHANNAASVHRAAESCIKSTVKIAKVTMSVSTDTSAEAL

[10] = hCB1R Ki, CHO membranes stably expressing human CB1R, means of three experiments
[11] = hCB2R Ki, CHO membranes stably expressing human CB2R, means of three experiments
[12] = CHO membranes stably expressing human CB2R, means of three experiments, read-out: hCB2R Ki

CCOC(=O)C(CC)(CC)NC(=O)c1cnc(OCC2CC2)c(-c2ccc(F)cc2)c1 [Compound 17, Ethyl 2-(6-(Cyclopropylmethoxy)-5-(4-fluorophenyl)nicotinamido)-2-ethylbutanoate]
Ki (hCB1R [1]; [10]): 308 nM
Ki (human CB2R; [11]): 6 nM
Ki (human CB2R; hCB2R pKi ± SEM, CHO membranes): 6.46 nM
IC50 (hCB1R [2]): 3980 nM
Emax (hCB1R [2]): -116%
Emax (hCB1R [3]): -48%
IC50 (hCB1R [3]): 43.6 nM
Functional activity at CB1R (in words) (hCB1R [3]): inverse agonists

CCOC(=O)C(CC)(CC)NC(=O)c1cc(-c2cc(C(F)(F)F)ccc2C(F)(F)F)n(C[C@H]2CCCO2)c1C [Compound 14, Ethyl (R)-2-(5-(2,5-Bis(trifluoromethyl)phenyl)-2-methyl-1-((tetrahydrofuran-2-yl)methyl)-1H-pyrrole-3-carboxamido)-2-ethylbutanoate]
Ki (hCB1R [1]; hCB1R pKi ± SEM, CHO membranes): 11 nM
Ki(CB2R)/Ki(CB1R) selectivity (hCB1R [1]; radioligand binding Ki ratio): 28 fold
Ki (human CB2R; [12]): 306 nM
IC50 (hCB1R [2]): 10 nM
Emax (hCB1R [2]): -107%
Emax (hCB1R [3]): -46%
IC50 (hCB1R [3]): 1.48 nM
Functional activity at CB1R (in words) (hCB1R [3]): inverse agonists

O=C(NC1CCCCC1O)c1cnc(OCC2CC2)c(-c2ccc(F)cc2)c1 (stereo not drawn) [Compound 8]
Functional profile at CB1R (in words) (CB1R [4]): inverse agonist
Ki (CB2R): > 10000 nM
Ki (CB1R [5]): 42.8 nM

CC(C)[C@H](NC(=O)c1nn(Cc2cccc(F)c2)c2ccccc12)C(N)=O [Compound 10, AB-FUBINACA 3-F benzyl]
Ki(CB2R)/Ki(CB1R) selectivity (CB1R [6]): 4 fold
Functional profile at CB1R (in words) (CB1R [4]): agonist
Ki (CB2R): 52.5 nM
Ki (CB1R [5]): 12.6 nM

Cc1c(C(=O)NC2CCCCC2)cc(-c2cc(C(F)(F)F)ccc2C(F)(F)F)n1CC1CCCO1 (stereo not drawn) [Compound 5]
Functional profile at CB1R (in words) (CB1R [4]): inverse agonist
IC50 (CB2R): > 80 nM
IC50 (CB1R [5]): 8 nM

CCC(CC)(NC(=O)c1cc(-c2cc(C(F)(F)F)ccc2C(F)(F)F)n(C[C@H]2CCCO2)c1C)C(=O)NCCOCCOCCNc1ccc([N+](=O)[O-])c2nonc12 [Compound 28, (R)-5-(2,5-Bis(trifluoromethyl)phenyl)-2-methyl-N-(3-((2-(2-(2-((7-nitrobenzo[c][1,2,5]oxadiazol-4-yl)amino)ethoxy)ethoxy)ethyl)carbamoyl)pentan-3-yl)-1-((tetrahydrofuran-2-yl)methyl)-1H-pyrrole-3-carboxamide]
Ki (hCB1R [1]; [10]): 97 nM
Ki(CB2R)/Ki(CB1R) (hCB1R [1]; radioligand binding Ki ratio): > 103
Abs (absorbance maximum) [7]: 475 nm
Em (emission maximum) [7]: 550 nm
QY (quantum yield) [7]: 1.3%
hCB2R % displacement at 10 µM (human CB2R): 41 ± 2%
Ki (human CB2R; [12]): > 10000 nM
IC50 (hCB1R [2]): 398 nM
Emax (hCB1R [2]): -97%
Emax (hCB1R [3]): -62%
IC50 (hCB1R [3]): 16.6 nM
Functional activity at CB1R (in words) (hCB1R [3]): inverse agonists

CCOC(=O)C(CC)(CC)NC(=O)c1nn(-c2ccc(Cl)cc2Cl)c(-c2ccc(Cl)cc2)c1C [Compound 15, Ethyl 2-(5-(4-Chlorophenyl)-1-(2,4-dichlorophenyl)-4-methyl-1H-pyrazole-3-carboxamido)-2-ethylbutanoate]
Ki (hCB1R [1]; hCB1R pKi ± SEM, CHO membranes): 28.2 nM
Ki (human CB2R; [11]): 9 nM
Ki (human CB2R; hCB2R pKi ± SEM, CHO membranes): 8.51 nM
Emax (hCB1R [3]): -42%
IC50 (hCB1R [3]): 13.2 nM
Functional activity at CB1R (in words) (hCB1R [3]): inverse agonists

CCOC(=O)C(CC)(CC)NC(=O)c1nn(Cc2cccc(F)c2)c2ccccc12 [Compound 19, Ethyl 2-Ethyl-2-(1-(3-fluorobenzyl)-1H-indazole-3-carboxamido)butanoate]
Ki (hCB1R [1]; hCB1R pKi ± SEM, CHO membranes): 19.1 nM
Ki (human CB2R; [11]): 1 nM
Ki (human CB2R; hCB2R pKi ± SEM, CHO membranes): 0.631 nM
EC50 (hCB1R [3]): 3.24 nM
Emax (hCB1R [3]): 93%
Functional activity at CB1R (in words) (hCB1R [3]): agonist

CCCCCCC(C)(C)c1cc(O)c2c(c1)OC(C)(C)c1ccc(CNCCCCCCNC(=O)CCCCCC[N+]3=C(/C=C/C=C/C=C4/N(C)c5ccc(S(=O)(=O)O)cc5C4(C)C)C(C)(C)c4cc(S(=O)(=O)[O-])ccc43)cc1-2 [ABP511]
Ki (hCB1R [8]): 3.5 nM

CCCCCCC(C)(C)c1cc(O)c2c(c1)OC(C)(C)[C@@H]1CC=C(CO)C[C@@H]21 [HU210]
Kd (hCB1R [9]): 3.04 nM
koff (hCB1R [9]): 0.00183 s⁻¹
kon (hCB1R [9]): 623000 M⁻¹ s⁻¹
Ki (hCB1R [9]; Ki): 2.08 nM and 1.26 nM
Ki (hCB1R [9]; pKi): 2.04 nM
residence time (hCB1R [9]; read-out: RT (residence time)): 9.1 min

Cc1c(C(=O)NN2CCOCC2)nn(-c2ccc(Cl)cc2Cl)c1-c1ccc(I)cc1 [AM281, reference compound]
Variation of Emax (hCB1R [2]; antagonist mode, normalized to reference antagonist AM281): -100%
Antagonist activity (cAMP assay) pEC50 or pIC50 ± SEM (hCB1R [2]; antagonist mode, n.a. is no activity): 7.0 ± 0.04

CCC(CC)(NC(=O)c1nn(Cc2cccc(F)c2)c2ccccc12)C(=O)NCCOCCOCCNc1ccc([N+](=O)[O-])c2nonc12 [Compound 36, 1-(3-Fluorobenzyl)-N-(3-((2-(2-(2-((7-nitrobenzo[c][1,2,5]oxadiazol-4-yl)amino)ethoxy)ethoxy)ethyl)carbamoyl)pentan-3-yl)-1H-indazole-3-carboxamide]
Ki (hCB1R [1]; [10]): 1170 nM
Abs (absorbance maximum) [7]: 475 nm
Em (emission maximum) [7]: 565 nm
QY (quantum yield) [7]: 1.50%
Ki (human CB2R; [11]): 79 nM

O=C(NN1CCCCC1)c1nn(-c2ccc(Cl)cc2Cl)c2c1CCCc1cc(Cl)ccc1-2 [Compound 7, NESS-0327]
Functional profile at CB1R (in words) (CB1R [4]): neutral antagonist
Ki (CB2R): 55.7 nM
Ki (CB1R [5]): 4.2 nM

COCCOc1ncc(C(=O)NC[C@](C)(O)C2CC2)nc1-c1ccc(Cl)cc1 [Compound 9]
Functional profile at CB1R (in words) (CB1R [4]): inverse agonist
Ki (CB2R): > 475 nM
Ki (CB1R [5]): 47.5 nM

CCC(CC)(NC(=O)c1nn(-c2ccc(Cl)cc2Cl)c(-c2ccc(Cl)cc2)c1C)C(=O)NCCOCCOCCNC(=O)c1ccc2c(c1)C(=O)OC21c2ccc(N(C)C)cc2Oc2cc(N(C)C)ccc21 [Compound 31]
hCB1R % displacement at 10 µM (hCB1R [1]; [3H]CP55,940 displacement at 10 µM compound, ± SEM): 37 ± 5%
Ki (hCB1R [1]; read-out: hCB1R Ki, CHO membranes stably expressing human CB1R, means of three experiments): > 10000 nM
Abs (absorbance maximum) [7]: 520 nm
Em (emission maximum) [7]: 585 nm
QY (quantum yield) [7]: 17.50%
hCB2R % displacement at 10 µM (human CB2R): 32 ± 6%
Ki (human CB2R; read-out: hCB2R Ki, CHO membranes stably expressing human CB2R, means of three experiments): > 10000 nM

CCC(CC)(NC(=O)c1nn(-c2ccc(Cl)cc2Cl)c(-c2ccc(Cl)cc2)c1C)C(=O)NCCOCCOCCNC(=O)OC(C)(C)C [Compound 23b, tert-Butyl (1-(5-(4-Chlorophenyl)-1-(2,4-dichlorophenyl)-4-methyl-1H-pyrazol-3-yl)-3,3-diethyl-1,4-dioxo-8,11-dioxa-2,5-diazatridecan-13-yl)carbamate]
Ki (hCB1R [1]; [10]): 139 nM
hCB2R % displacement at 10 µM (human CB2R): 44 ± 5%
Ki (human CB2R; [11]): > 10000 nM
IC50 (hCB1R [2]): 1580 nM
Emax (hCB1R [2]): -96%
Emax (hCB1R [3]): -44%
IC50 (hCB1R [3]): 64.6 nM
Functional activity at CB1R (in words) (hCB1R [3]): inverse agonist

CCOC(=O)C(CC)(CC)NC(=O)c1cnc(OCCOC)c(-c2ccc(Cl)cc2)n1 [Compound 18, Ethyl 2-(6-(4-Chlorophenyl)-5-(2-methoxyethoxy)pyrazine-2-carboxamido)-2-ethylbutanoate]
Ki (hCB1R [1]; [10]): 817 nM
Ki (human CB2R; hCB2R pKi ± SEM, CHO membranes): 11.2 nM
Emax (hCB1R [3]): -41%
IC50 (hCB1R [3]): 191 nM
Functional activity at CB1R (in words) (hCB1R [3]): inverse agonists

CCC(CC)(NC(=O)c1nn(-c2ccc(Cl)cc2Cl)c(-c2ccc(Cl)cc2)c1C)C(=O)NCCOCCOCCNc1ccc([N+](=O)[O-])c2nonc12 [Compound 30, 5-(4-Chlorophenyl)-1-(2,4-dichlorophenyl)-4-methyl-N-(3-((2-(2-(2-((7-nitrobenzo[c][1,2,5]oxadiazol-4-yl)amino)ethoxy)ethoxy)ethyl)carbamoyl)pentan-3-yl)-1H-pyrazole-3-carboxamide]
Ki (hCB1R [1]; [10]): 428 nM
Ki(CB2R)/Ki(CB1R) (hCB1R [1]; radioligand binding Ki ratio): > 23
Abs (absorbance maximum) [7]: 475 nm
Em (emission maximum) [7]: 570 nm
QY (quantum yield) [7]: 0.80%
hCB2R % displacement at 10 µM (human CB2R): 49 ± 3%
Ki (human CB2R; [11]): > 10000 nM
Emax (hCB1R [3]): -41%
IC50 (hCB1R [3]): 60.3 nM
Functional activity at CB1R (in words) (hCB1R [3]): Inverse agonist

CCOC(=O)C(CC)(CC)NC(=O)c1nn(-c2ccc(Cl)cc2Cl)c2c1CCCc1cc(Cl)ccc1-2 [Compound 16, Ethyl 2-(8-Chloro-1-(2,4-dichlorophenyl)-1,4,5,6-tetrahydrobenzo[6,7]cyclohepta[1,2-c]pyrazole-3-carboxamido)-2-ethylbutanoate]
Ki (hCB1R [1]; hCB1R pKi ± SEM, CHO membranes): 17.8 nM
Ki (human CB2R; hCB2R pKi ± SEM, CHO membranes): 3.98 nM
Functional activity at CB1R (in words) (hCB1R [3]): no activity

CCC(CC)(NC(=O)c1cc(-c2cc(C(F)(F)F)ccc2C(F)(F)F)n(C[C@H]2CCCO2)c1C)C(=O)NCCOCCOCCNC(=O)OC(C)(C)C [Compound 22b, tert-Butyl (R)-(1-(5-(2,5-Bis(trifluoromethyl)phenyl)-2-methyl-1-((tetrahydrofuran-2-yl)methyl)-1H-pyrrol-3-yl)-3,3-diethyl-1,4-dioxo-8,11-dioxa-2,5-diazatridecan-13-yl)carbamate]
Ki (hCB1R [1]; CHO membranes stably expressing human CB1R, means of three experiments, read-out: hCB1R Ki): 811 nM
hCB2R % displacement at 10 µM (human CB2R): 22 ± 9%
Ki (human CB2R; [12]): > 10000 nM
IC50 (hCB1R [2]): 1000 nM
Emax (hCB1R [2]): -105%
Emax (hCB1R [3]): -69%
Functional activity at CB1R (in words) (hCB1R [3]): inverse agonist
IC50 (hCB1R [3]; read-out: Functional activity (cAMP assay) IC50): 131 nM
